From patent US9422308B2, “Derivatives of docosahexaenoylethanolamide and uses thereof” (The United States of America, as represented by the …, priority 2012, dated 2016)

Tests used:
FAAH = target: T1, FAAH (Homo sapiens, UniProt O00519); experiment: time course FAAH enzyme assay; format: in vitro ADME; details: for % remaining: 1 mM, pH 9
T1 sequence (O00519 1-579): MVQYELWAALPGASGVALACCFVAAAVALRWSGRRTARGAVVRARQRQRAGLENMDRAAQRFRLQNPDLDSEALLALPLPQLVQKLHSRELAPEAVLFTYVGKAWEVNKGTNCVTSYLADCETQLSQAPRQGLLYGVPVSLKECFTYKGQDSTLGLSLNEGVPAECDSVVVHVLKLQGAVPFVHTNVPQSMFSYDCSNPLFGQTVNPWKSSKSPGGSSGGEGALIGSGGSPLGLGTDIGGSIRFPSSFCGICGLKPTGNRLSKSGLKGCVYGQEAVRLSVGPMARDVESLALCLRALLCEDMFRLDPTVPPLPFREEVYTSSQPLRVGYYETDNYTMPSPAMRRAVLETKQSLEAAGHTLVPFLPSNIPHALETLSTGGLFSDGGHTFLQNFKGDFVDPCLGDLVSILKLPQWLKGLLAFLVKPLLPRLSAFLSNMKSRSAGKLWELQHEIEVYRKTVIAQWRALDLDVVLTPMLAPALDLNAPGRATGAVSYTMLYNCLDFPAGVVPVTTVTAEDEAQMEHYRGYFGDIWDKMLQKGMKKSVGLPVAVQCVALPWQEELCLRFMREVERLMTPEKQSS
Description: Method development: The signal was optimized for each compound by ESI positive or negative ionization mode. A MS2 SIM scan was used to optimize the precursor ion and a product ion analysis was used to identify the best fragment for analysis and to optimize the collision energy.
Analysis: Samples were analyzed by LC/MS/MS using a API 3000 coupled with an Shimadzu HPLC and a CTC PAL chilled autosampler, all […] controlled by Analyst software (ABI). After separation on a C18 reverse phase HPLC column (Agilent, Waters, or equivalent). Mobile phase A was 0.1% AcOH in water. Mobile phase B was 0.1% AcOH in methanol. The flow rate was 0.6 mL/min. The gradient program included a 0.5 min hold at 30% B (the starting conditions), followed by a gradient to 100% B over 2.5 min and a 1 min hold at 100% B. The column was then returned to starting conditions and equilibrated over 1.25 min.
Assay Protocol: Assays were performed at 37° C. at pH=9.0 and involved the use of 0.1 U of FAAH. […] Reaction was terminated after an appropriate time by using protein precipitation treatment with acetonitrile (3:1, v/v).

FAAH KO mice = experiment: beam walk test after traumatic brain injury by controlled cortical impact; format: in vivo; details: one-time i.p. 25 mg/kg at 15 min after TBI (CCI), from the day 4 after TBI, FIG. 8
Description: For the beam walk test, mice were trained to traverse a narrow beam before injury caused by controlled cortical impact (CCI), and the number of hind foot slips after injury was observed over the course of recovery.
A8 has increased resistance to FAAH in comparison to synaptamide but still does show some susceptibility to hydrolysis by FAAH. The effects of A8 in FAAH KO mice were tested by one-time i.p. administration of A8 (25 mg/kg) at 15 min after traumatic brain injury (TBI) inflicted by controlled cortical impact (CCI).

[1] = tested on: fatty acid amide hydrolase (FAAH); experiment: incubation with WT or FAAH KO brain homogenates (susceptibility to FAAH hydrolysis); format: in vitro ADME, mouse; details: for susceptibility to hydrolysis by FAAH: WT or FAAH KO brain homogenates
Description: Wildtype (WT) or FAAH knock out (KO) brain homogenates were incubated with either A8 or synaptamide.
Incubation of synaptamide and A8 with brain homogenates: Make 5× pH 9 assay buffer (625 mM Tris, 5 mM EDTA). Collect fresh brains of C57 mice into cold 1× pH 9 assay buffer. Homogenize entire brain (including cerebellum) in 2 mL of cold buffer using a conical Potter-Evehjem type tissue homogenizer driven by a motor. Perform incubations in washed and silanized 10 mL glass test tubes at 37° C. for 1 hour. Add 10 pmoles each of A8 and d4-synaptamide (5 uL of a 2 pmol/uL mixture of A8 and d4-synaptamide in DMSO). See Kim et al., Prostaglandins & Other Lipid Mediators, 96(1-4):114-120 (2011) for the structure of d4-synaptamide (d4-DEA). Add 500 μL of brain homogenate per incubation tube. Vortex gently. Incubate at 37° C. in a water bath, shaking at 42 rpm for 1 hour. Stop reaction by adding 1 mL chloroform, 1 mL methanol, 1 mL methanol/BHT (50 mg/L BHT) and 300 μL water. Vortex to mix, store under an inert gas at −80° C. until. Ready to extract via the method of Bligh and Dyer, Canadian J. Biochem. 37: 911-917, 1959.
Extraction procedure: Incubations are already in the 1st Bligh-Dyer ration (0.8:1:2 aqueous:CHCl3:MeOH). Work on wet ice. Add 10 pmoles of d4-anandamide which will be used as an internal standard to give relative quantification of the unhydrolyzed d4-synaptamide and A8. Add 1 mL water and 1 mL CHCl3 to each tube, purge with nitrogen, vortex vigorously 1 minute. Centrifuge 5 minutes at 4° C.; 3,000 rpm (Sorvall RTH 750 rotor) to separate phases. Extract the organic phase (bottom layer) to a clean silanized 10 mL test tube using glass Pasteur pipette. Avoid getting any aqueous phase in extract. Add 2 mL CHCl3 to the aqueous phase, purge with nitrogen and vortex 1 minute. […] Cap vials under argon and store at −80° C. until ready to analyze via HPLC-MS.
Ten pmoles each of A8 and d4-synaptamide were incubated with WT or FAAH KO brain homogenates or buffer (B, […]). Relative quantitation was performed via SRM mass spectrometry.

SMILES: CC/C=C\C/C=C\C/C=C\C/C=C\C/C=C\C/C=C\CCC(=O)NCC(C)(C)O [Compound 1, (4Z,7Z,10Z,13Z,16Z,19Z)—N-(2-hydroxy-2-methylpropyl)docosa-4,7,10,13,16,19-hexaenamide]
- susceptibility to hydrolysis by FAAH (FAAH): less susceptible to hydrolysis by FAAH than synaptamide or AEA
- % remaining (FAAH; 0 h): 99%
- % remaining (FAAH; 0.5 h): 101%
- % remaining (FAAH; 1 h): 85%
- TBI-induced behavioral deficit (beam walk test, hind foot slips) (FAAH KO mice): significant improvement
- susceptibility to hydrolysis by FAAH ([1]; Example 3, FIG. 5): less susceptible to hydrolysis by FAAH than synaptamide
- susceptibility to hydrolysis by FAAH ([1]; Example 4, 10 pmoles, pH 9, 37° C., 1 hour, FIG. 6, vs d4-synaptamide): less susceptible to hydrolysis by FAAH than the deuterated synaptamide
- percent recovery of compound after incubation with brain homogenate ([1]; WT and FAAH KO brain homogenate, FIG. 5, compared with synaptamide): higher than synaptamide
